In patent US9957276B2, “CDK inhibitors” (G1 THERAPEUTICS, INC., priority 2010, dated 2018):

Tests used:
[1] = target: CDK2/cyclinE (Homo sapiens (Human), UniProt P24941); test: CDK2/cyclinE kinase enzymatic assay (Caliper LabChip); format: biochemical; conditions: Table 2, class symbols; read-out: CDK2/CycE IC50
Description: (§1) Kinase enzymatic reactions were performed in 384-well microplates using a 12-channel Caliper LabChip instrument as a detection device. […] As substrate and product are separated, two peaks of fluorescence are observed. Change in the relative fluorescence intensity of the substrate and product peaks is the parameter measured, reflecting enzyme activity. In the presence of an inhibitor, the ratio between product and substrate is altered. The signal of the product decreases, while the signal of the substrate increases.
(§2) Potential inhibitor compounds (as HCl salts) were tested using 12-point dose response curves in […] at the Km for ATP. The IC50 of each compound was determined using GraphPad Prism.

[2] = target: CDK4/CyclinD (Homo sapiens (Human), UniProt P11802); test: CDK4/CyclinD kinase enzymatic assay (Caliper LabChip); format: biochemical; conditions: for selectivity for Cdk4/CycD1 over Cdk2/CycE: from the IC50 values
Description: as §1, §2

Chain of CDK4/CyclinD (P11802 whole entry, species assumed): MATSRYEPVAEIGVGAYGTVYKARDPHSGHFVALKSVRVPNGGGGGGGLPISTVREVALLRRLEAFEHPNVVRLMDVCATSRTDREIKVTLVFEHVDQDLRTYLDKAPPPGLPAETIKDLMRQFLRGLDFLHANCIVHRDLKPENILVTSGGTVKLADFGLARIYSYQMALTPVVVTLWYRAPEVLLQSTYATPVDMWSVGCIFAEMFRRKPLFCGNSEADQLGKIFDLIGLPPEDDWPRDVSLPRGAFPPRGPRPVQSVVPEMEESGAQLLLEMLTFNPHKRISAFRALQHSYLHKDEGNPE
Chain of CDK4/CyclinD (P24385 whole entry partner, species assumed): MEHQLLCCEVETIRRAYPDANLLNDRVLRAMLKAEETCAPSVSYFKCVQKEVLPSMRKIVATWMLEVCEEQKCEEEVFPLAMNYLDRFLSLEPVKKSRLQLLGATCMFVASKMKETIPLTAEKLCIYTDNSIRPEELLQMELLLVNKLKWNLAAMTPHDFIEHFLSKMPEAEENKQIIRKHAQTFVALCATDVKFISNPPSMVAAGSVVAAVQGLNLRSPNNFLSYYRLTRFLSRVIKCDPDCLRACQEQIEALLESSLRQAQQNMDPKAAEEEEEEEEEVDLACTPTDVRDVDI

Row | IC50 [1] [µM] | SMILES | IC50 ([2]; compounds as HCl salts, 12-point dose response, at the Km for ATP, three hours) [µM] | selectivity for Cdk4/CycD1 over Cdk2/CycE [2] [fold]
1 | > 100 | CC(C)C[C@H]1CN(C)C(=O)c2cc3cnc(Nc4ccc(N5CCNCC5)cn4)nc3n21 [Compound 15] | – | –
2 | > 100 | CC(C)C1CNC(=O)c2cc3cnc(Nc4ccc(N5CCN(C(=O)OC(C)(C)C)CC5)cn4)nc3n21 (stereo not shown) [Compound 6] | – | –
3 | > 100 | CC(C)C[C@H]1CN(C)C(=O)c2cc3cnc(Nc4ccc(N5CCN(C)CC5)cn4)nc3n21 [Compound 14] | – | –
4 | > 100 | CN1CC2(CCCC2)n2c(cc3cnc(Nc4ccc(N5CCNCC5)cn4)nc32)C1=O [Compound 31] | – | –
5 | > 100 | CC(C)C1CNC(=O)c2cc3cnc(Nc4ccc(N5CCN(C)CC5)cn4)nc3n21 (stereo not shown) [Compound 7] | – | –
6 | > 100 | CN1CCn2c(cc3cnc(Nc4ccc(N5CCNCC5)cn4)nc32)C1=O [Compound 5] | – | –
7 | > 100 | CCC(C)[C@H]1CN(C)C(=O)c2cc3cnc(Nc4ccc(N5CCN(C)CC5)cn4)nc3n21 (stereo partly shown) [Compound 18] | – | –
8 | > 100 | CC(C)[C@H]1CN(C)C(=O)c2cc3cnc(Nc4ccc(N5CCNCC5)cn4)nc3n21 [Compound 11] | – | –
9 | > 100 | CCC(C)[C@H]1CN(C)C(=O)c2cc3cnc(Nc4ccc(N5CCNCC5)cn4)nc3n21 (stereo partly shown) [Compound 19] | – | –
10 | > 100 | CC(C)CC1CN(C)C(=O)c2cc3cnc(Nc4ccc(N5CCNCC5)cn4)nc3n21 (stereo not shown) [Compound 47] | – | –
11 | > 100 | CN1CCN(c2ccc(Nc3ncc4cc5n(c4n3)[C@H]3CCC[C@@H]3NC5=O)nc2)CC1 [Compound 48] | – | –
12 | 1 to 100 | O=C1N[C@H]2CCC[C@@H]2n2c1cc1cnc(Nc3ccc(N4CCNCC4)cn3)nc12 [Compound 49] | – | –
13 | – | O=C1NCCn2c1cc1cnc(Nc3ccc(N4CCNCC4)cn3)nc12 [Compound 3] | – | 100

Row | SMILES | IC50 [1] [µM] | IC50 ([2]; compounds as HCl salts, 12-point dose response, at the Km for ATP, three hours) [µM] | selectivity for Cdk4/CycD1 over Cdk2/CycE [2] [fold]
14 | CN1CCN(c2ccc(Nc3ncc4cc5n(c4n3)CCNC5=O)nc2)CC1 [Compound 1] | > 100 | 0.453 | 200
